Assay results reported in US20240150321A1, “PYRAZOLYLSULFONAMIDE COMPOUNDS AND THEIR USE IN THERAPY” (HOTSPOT THERAPEUTICS, INC., priority 2022, published 2024).
Where two headings read alike, the source gives them in different places.

Key:
[1] = target: Avi-tagged FL MALT-1 (Homo sapiens (Human), UniProt Q9UDY8); assay: MALT-1 Fluorogenic Peptide Cleavage Assay (MALT1 inhibition assay); type: biochemical; conditions: Ac-LRSR-AMC peptide substrate, 30 min pre-incubation, 90 min reaction at room temperature
How it was run: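 Full-length Avi-tagged human MALT-1 (40 nM working stock) pre-incubated 30 min at RT with compound in 25 mM HEPES pH 6.89, 660 mM sodium citrate, 1 mM TCEP, […], 0.05% CHAPS, 2% DMSO. Ac-LRSR-AMC added at Km (50 μM working stock) or 10×Km (280 μM working stock); 90 min at RT, AMC fluorescence (ex 342/em 441 nm), IC50 from % inhibition curves.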

[2] = test system: NF-kB reporter in Jurkat cells; assay: NF-kB reporter assay in Jurkat cells stimulated with aCD3/aCD28/PMA; type: cell-based
How it was run: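 Jurkat cells (25,000/well, serum-free RPMI) were pre-incubated 1 h at 37° C with serially diluted compound, then stimulated 4 h with aCD3/aCD28/PMA at final […]. NF-kB reporter activity was read by One-Glo luminescence; IC50 values reported.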

[3] = Homo sapiens; Jurkat cells, 1 hr compound pre-incubation, aCD3/aCD28/PMA stimulation 4 hr, One-Glo readout; read-out: NF-kB Reporter Assay IC50

Sequence of Avi-tagged FL MALT-1 (Q9UDY8 whole entry): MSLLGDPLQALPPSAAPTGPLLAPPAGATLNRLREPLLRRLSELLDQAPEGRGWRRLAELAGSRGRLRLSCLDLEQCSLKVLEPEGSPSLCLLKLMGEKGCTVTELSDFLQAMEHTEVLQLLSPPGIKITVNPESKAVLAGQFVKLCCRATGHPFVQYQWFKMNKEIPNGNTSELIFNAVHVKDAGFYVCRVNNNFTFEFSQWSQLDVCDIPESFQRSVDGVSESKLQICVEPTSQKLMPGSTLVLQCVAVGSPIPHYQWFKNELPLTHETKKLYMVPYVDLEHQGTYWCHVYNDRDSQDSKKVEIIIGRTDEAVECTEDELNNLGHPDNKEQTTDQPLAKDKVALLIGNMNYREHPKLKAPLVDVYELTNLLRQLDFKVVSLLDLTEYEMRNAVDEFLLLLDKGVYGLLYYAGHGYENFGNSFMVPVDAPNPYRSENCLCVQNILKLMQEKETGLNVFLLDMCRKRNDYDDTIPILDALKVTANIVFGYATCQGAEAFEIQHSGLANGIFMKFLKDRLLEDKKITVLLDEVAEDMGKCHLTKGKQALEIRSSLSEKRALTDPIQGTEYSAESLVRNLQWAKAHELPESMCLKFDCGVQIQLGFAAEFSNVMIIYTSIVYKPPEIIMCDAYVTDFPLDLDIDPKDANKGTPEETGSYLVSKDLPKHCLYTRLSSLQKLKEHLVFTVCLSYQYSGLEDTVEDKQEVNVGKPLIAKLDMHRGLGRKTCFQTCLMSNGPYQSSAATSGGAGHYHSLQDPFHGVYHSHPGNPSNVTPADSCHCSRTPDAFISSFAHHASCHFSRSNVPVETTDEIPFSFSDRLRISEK

| Structure (SMILES) | IC50 [1] [nM] | IC50 [2, 3] [nM] | IC50 ([2]; Jurkat cells, 1 hr compound pre-incubation, aCD3/aCD28/PMA stimulation 4 hr, One-Glo readout; read-out: NF-kB Reporter Assay IC50) [nM] | IC50 ([2]; Homo sapiens, Jurkat, read-out: NF-kB Reporter Assay IC50) [nM] | IC50 ([2]; read-out: NF-kB Reporter Assay IC50; Jurkat cells, 1 hr compound pre-incubation, aCD3/aCD28/PMA stimulation 4 hr, One-Glo readout) [nM] |
| --- | --- | --- | --- | --- | --- |
| [2H]C([2H])([2H])n1ncc2cnc(OC)c(NS(=O)(=O)c3cnn(-c4cc(C(F)(F)F)ccn4)c3)c21 [Compound I-352, N-(6-methoxy-1-(methyl-d3)-1H-pyrazolo[4,3-c]pyridin-7-yl)-1-(4-(trifluoromethyl)pyridin-2-yl)-1H-pyrazole-4-sulfonamide] | ≤ 400 | < 400 |  |  |  |
| Cn1ncc2cccc(NS(=O)(=O)c3cnn(-c4cc(C5(C#N)CCC5)ccn4)c3)c21 [Compound I-456] | > 2500 | < 400 |  |  |  |
| COc1ccc2cnn(C)c2c1NS(=O)(=O)c1cnn(-c2cc(C3(C#N)CC3)ccn2)c1 [Compound I-470, 1-[4-(1-cyanocyclopropyl)pyridin-2-yl]-N-(6-methoxy-1-methylindazol-7-yl)pyrazole-4-sulfonamide] | 400 to 1000 |  |  | < 400 |  |
| Cn1ncc2cccc(NS(=O)(=O)c3cnn(-c4cc(N5CC(C(N)=O)C5)ccn4)c3)c21 [Compound I-471, 1-(2-(4-(N-(1-methyl-1H-indazol-7-yl)sulfamoyl)-1H-pyrazol-1-yl)pyridin-4-yl)azetidine-3-carboxamide] | > 2500 | > 2500 |  |  |  |
| COCCn1ncc2cccc(NS(=O)(=O)c3cnn(-c4cc(C(F)(F)F)ccn4)c3)c21 [Compound I-98, N-(1-(2-Methoxyethyl)-1H-Indazol-7-yl)-1-(4-(Trifluoromethyl)Pyridin-2-yl)-1H-Pyrazole-4-Sulfonamide] | > 2500 | > 2500 |  |  |  |
| Cn1ncc2cccc(NS(=O)(=O)c3cnn(-c4cc(N5CCCCCC5)ccn4)c3)c21 [Compound I-391, 1-[4-(azepan-1-yl)pyridin-2-yl]-N-(1-methylindazol-7-yl)pyrazole-4-sulfonamide] | > 2500 | < 400 |  |  |  |
| CCc1ccc2[nH]nc(C)c2c1N(C)S(=O)(=O)c1cnn(-c2cc(C)ccn2)c1 [Compound I-78, N-(5-Ethyl-3-Methyl-1H-Indazol-4-yl)-N-Methyl-1-(4-Methylpyridin-2-yl)Pyrazole-4-Sulfonamide] | ≤ 400 | 400 to 1000 |  |  |  |
| CCC(O)c1ccnc(-n2cc(S(=O)(=O)Nc3c(OC)ccc4cnn(C)c34)cn2)c1 (single isomer, unassigned) [Compound I-280, 1-(4-(1-hydroxypropyl)pyridin-2-yl)-N-(6-methoxy-1-methyl-1H-indazol-7-yl)-1H-pyrazole-4-sulfonamide] | 400 to 1000 |  |  |  | < 400 |
| CCC(O)c1ccnc(-n2cc(S(=O)(=O)Nc3c(OC)ccc4cnn(C)c34)cn2)c1 (single isomer, unassigned) [Compound I-281, 1-(4-(1-hydroxypropyl)pyridin-2-yl)-N-(6-methoxy-1-methyl-1H-indazol-7-yl)-1H-pyrazole-4-sulfonamide] | 400 to 1000 | < 400 |  |  |  |
| C[C@H](O)c1ccnc(-n2cc(S(=O)(=O)Nc3cccc4cnn(C)c34)cn2)c1 [Compound I-270] | > 2500 | < 400 |  |  |  |
| Cc1n[nH]c2cccc(NS(=O)(=O)c3cnn(-c4cc(C(F)(F)F)ccn4)c3)c12 [Compound I-73, N-(3-Methyl-1H-Indazol-4-yl)-1-(4-(Trifluoromethyl)Pyridin-2-yl)-1H-Pyrazole-4-Sulfonamide] | 1000 to 2500 | < 400 |  |  |  |
| COC1(c2ccnc(-n3cc(S(=O)(=O)Nc4cccc5cnn(C)c45)cn3)c2)CN(C(C)=O)C1 [Compound I-254] | > 2500 | 1000 to 2500 |  |  |  |
| [2H]C([2H])([2H])n1nc(F)c2cccc(NS(=O)(=O)c3cnn(-c4cc(C(F)(F)F)ccn4)c3)c21 [Compound I-100] | > 2500 | < 400 |  |  |  |
| Cn1ncc2cccc(NS(=O)(=O)c3cnn(-c4cc(C5(O)CC(F)C5)ccn4)c3)c21 (stereo not shown) [Compound I-358] | > 2500 | < 400 |  |  |  |
| Cc1cnc(-n2cc(S(=O)(=O)Nc3cccc4cnn(C)c34)cn2)cc1C(F)(F)F [Compound I-117, N-(1-methyl-1H-indazol-7-yl)-1-(5-methyl-4-(trifluoromethyl)pyridin-2-yl)-1H-pyrazole-4-sulfonamide] | 1000 to 2500 | < 400 |  |  |  |

More lines, main results first:

| IC50 [1] [nM] | IC50 [2, 3] [nM] | IC50 ([2]; Jurkat cells, 1 hr compound pre-incubation, aCD3/aCD28/PMA stimulation 4 hr, One-Glo readout; read-out: NF-kB Reporter Assay IC50) [nM] | Structure (SMILES) | IC50 ([2]; Homo sapiens, Jurkat, read-out: NF-kB Reporter Assay IC50) [nM] | IC50 ([2]; read-out: NF-kB Reporter Assay IC50; Jurkat cells, 1 hr compound pre-incubation, aCD3/aCD28/PMA stimulation 4 hr, One-Glo readout) [nM] |
| --- | --- | --- | --- | --- | --- |
| 400 to 1000 | 1000 to 2500 |  | Cn1ncc2ccc(CC#N)c(NS(=O)(=O)c3cnn(-c4ccnc(C(F)(F)F)c4)c3)c21 [Compound I-6, N-(6-(Cyanomethyl)-1-Methyl-1H-Indazol-7-yl)-1-(2-(Trifluoromethyl)Pyridin-4-yl)-1H-Pyrazole-4-Sulfonamide] |  |  |
| 400 to 1000 | > 2500 |  | COc1ccc2cn(C)nc2c1NS(=O)(=O)c1cnn(-c2ccnc(C(F)(F)F)c2)c1 [Compound I-50, N-(6-Methoxy-2-Methyl-2H-Indazol-7-yl)-1-(2-(Trifluoromethyl)Pyridin-4-yl)-1H-Pyrazole-4-Sulfonamide] |  |  |
| > 2500 | < 400 |  | COc1ccc2cnn(C)c2c1NS(=O)(=O)c1cnn(-c2cc(N3CCOCC3)ccn2)c1 [Compound I-384] |  |  |
| ≤ 400 | < 400 |  | COc1ccc2cnn(C)c2c1NS(=O)(=O)c1cnn(-c2ccnc(C3CC3)c2)c1 [Compound I-77, 1-(2-Cyclopropylpyridin-4-yl)-N-(6-Methoxy-1-Methyl-1H-Indazol-7-yl)-1H-Pyrazole-4-Sulfonamide] |  |  |
| > 2500 | < 400 |  | Cn1ncc2cccc(NS(=O)(=O)c3cnn(-c4cc(C(C)(C)CO)ccn4)c3)c21 [Compound I-307, 1-(4-(1-hydroxy-2-methylpropan-2-yl)pyridin-2-yl)-N-(1-methyl-1H-indazol-7-yl)-1H-pyrazole-4-sulfonamide] |  |  |
| > 2500 | < 400 |  | COC1(c2ccnc(-n3cc(S(=O)(=O)Nc4cccc5cnn(C)c45)cn3)c2)CCC1 [Compound I-93, 1-(4-(1-Methoxycyclobutyl)Pyridin-2-yl)-N-(1-Methyl-1H-Indazol-7-yl)-1H-Pyrazole-4-Sulfonamide] |  |  |
| > 2500 | < 400 |  | Cn1ncc2cccc(NS(=O)(=O)c3cnn(-c4cc(N5CCC(C)(C)C5)ccn4)c3)c21 [Compound I-421, 1-(4-(3,3-dimethylpyrrolidin-1-yl)pyridin-2-yl)-N-(1-methyl-1H-indazol-7-yl)-1H-pyrazole-4-sulfonamide] |  |  |
| > 2500 | 1000 to 2500 |  | COc1ccc2cnn(C)c2c1NS(=O)(=O)c1cnn(-c2cnn3c2COCCC3)c1 [Compound I-455, N-(6-methoxy-1-methylindazol-7-yl)-1-{4H,6H,7H,8H-pyrazolo[3,2-c][1,4]oxazepin-3-yl}pyrazole-4-sulfonamide] |  |  |
| > 2500 | < 400 |  | C[C@@H]1CCN(c2ccnc(-n3cc(S(=O)(=O)Nc4cccc5cnn(C)c45)cn3)c2)C1 [Compound I-401, N-(1-methylindazol-7-yl)-1-{4-[(3R)-3-methylpyrrolidin-1-yl]pyridin-2-yl}pyrazole-4-sulfonamide] |  |  |
| > 2500 | < 400 |  | Cn1ncc2cccc(NS(=O)(=O)c3cnn(-c4cc(N5CC(F)C5)ccn4)c3)c21 [Compound I-438, 1-[4-(3-fluoroazetidin-1-yl)pyridin-2-yl]-N-(1-methylindazol-7-yl)pyrazole-4-sulfonamide] |  |  |
| ≤ 400 | < 400 |  | COc1cnc(C(F)(F)F)cc1-n1cc(S(=O)(=O)Nc2c(OC)ccc3cnn(C)c23)cn1 [Compound I-90, N-(6-Methoxy-1-Methyl-1H-Indazol-7-yl)-1-(5-Methoxy-2-(Trifluoromethyl)Pyridin-4-yl)-1H-Pyrazole-4-Sulfonamide] |  |  |
| > 2500 | < 400 |  | COC1CC(c2ccnc(-n3cc(S(=O)(=O)Nc4cccc5cnn(C)c45)cn3)c2)C1 (stereo not shown) [Compound I-399, 1-(4-(3-methoxycyclobutyl)pyridin-2-yl)-N-(1-methyl-1H-indazol-7-yl)-1H-pyrazole-4-sulfonamide] |  |  |
| > 2500 | 400 to 1000 |  | COc1ccc2cnn(C)c2c1NS(=O)(=O)c1cnn(-c2cc(N3CC(C)(OC)C3)ccn2)c1 [Compound I-453] |  |  |
| > 2500 | < 400 |  | COc1ccc2cnn(C)c2c1NS(=O)(=O)c1cnn(-c2cc(N3CCCCCC3)ccn2)c1 [Compound I-392] |  |  |
| 400 to 1000 | < 400 |  | COc1ccc2cnn(C)c2c1NS(=O)(=O)c1cnn(-c2cc(C3(C#N)CCC3)ccn2)c1 [Compound I-457, 1-(4-(1-Cyanocyclobutyl)Pyridin-2-yl)-N-(6-Methoxy-1-Methyl-1H-Indazol-7-yl)-1H-Pyrazole-4-Sulfonamide] |  |  |
| ≤ 400 |  | < 400 | COc1ncc2cnn(C)c2c1NS(=O)(=O)c1cnn(-c2cc(C(C)OC)ccn2)c1 (single isomer, unassigned) [Compound I-273, N-{6-methoxy-1-methylpyrazolo[4,3-c]pyridin-7-yl}-1-{4-[1-methoxyethyl]pyridin-2-yl}pyrazole-4-sulfonamide] |  |  |
| > 2500 | < 400 |  | COC[C@](C)(F)c1ccnc(-n2cc(S(=O)(=O)Nc3cccc4cnn(C)c34)cn2)c1 [Compound I-330, (R)-1-(4-(2-fluoro-1-methoxypropan-2-yl)pyridin-2-yl)-N-(1-methyl-1H-indazol-7-yl)-1H-pyrazole-4-sulfonamide] |  |  |
